Reference: patent US20220202739A1, “ENDOCANNABINOID MIMETIC AND ANTI-INFLAMMATORY COMPOUND CONTAINING COMPOSITIONS, METHODS OF PREPARATION AND USES THEREOF” (priority 2019, published 2022)

Legend:
Format in all cases: cell-based
[1] = test system: FAAH; test: Gene expression custom microarray, human skin fibroblasts (Example 1): FAAH
From the text: (§1) Cell cultures: A human skin fibroblast cell culture (or cultures) was obtained through the Coriell Cell Repository from the National Institute on Aging Cell Repository (Camden, N.J.), or Promocell GmbH (Heidelberg, Germany). The initial culture was selected from the following cell lines: AG13066, AG11557, AG11796 or GM03651E. The cell lines were derived from donors as follows:
(§2) Experimental phase: When the appropriate quantity of cells had been grown, they were detached as described above, but at the final step were seeded into each well of one or more 6 well dishes. Each well received 2 ml of the cell suspension so they were seeded equally. The dishes were returned to the incubator until 85-95% confluency was reached.
(§3) It is at this stage that all wells were rinsed in PBS after aspirating the growth media. The compound(s) to be tested were previously mixed into a suitable solvent (e.g., DMSO or ethanol) that can be diluted to the desired concentration of test compound (10 μl) in the culture wells without exceeding maximum solvent concentrations and adversely effecting cell viability, and mixed with basal media. NOTE: Standard maximum levels of solvent are 0.1% for DMSO and 0.5% for ETOH. The concentration of each test compound is found in Tables 1 & 2.
(§4) Every 2 wells on the 6 well plate served as a biological replicate for the purposes of RNA isolation and genetic expression evaluations making each 6 well dish an n=3 for the test compound(s) contained in the media. Negative control plates (no test compound(s) and only basal media) were also generated. The plates were returned to the incubator for 24 hrs.
(§5) At the end of the 24 hr time period, the plates were removed from the incubator, the test media aspirated, and the cells rinsed with PBS. RNA isolation is performed using the BioRad Aurum Total RNA Mini Kit (Hercules, Calif.) per manufacturer's protocol; which is described, in brief, below: • Add 350 μl of lysis buffer to each well. Pipet multiple times to ensure thorough lysis. Add lysed cells to the collection tube. • Add 350 μl of 70% ETOH to the collection tube and mix thoroughly. • Pipet the generated lysate onto the spin column placed in a new 2 ml tube. Centrifuge for 30 sec between 8,000 and 10,000 g. • Place the spin column containing the now bound RNA, in a new 2 ml tube. Add 700 μl of low stringency wash solution to the spin column. Centrifuge for 30 sec between 8,000 and 10,000 g. Discard the flow through and replace spin column. • Add 80 μl of DNase I dilution to the spin column and incubate at room temperature for 15 minutes. • Add 700 μl of high stringency wash solution to the column and centrifuge for 30 sec between 8,000 and 10,000 g. Discard flow through. • Add 700 μl of low stringency wash solution to the column and centrifuge for 60 sec between 8,000 and 10,000 g. Discard flow through. • Centrifuge for 2 minutes to remove residual wash solution. • Transfer spin column to new 1.5 ml collection tube and add 80 μl of elution solution to the column. Allow 1 minute for saturation of the membrane and then centrifuge for 2 minutes to complete the RNA elution. • Quantify the quantity of RNA and store at −20 C° until use (no more than 1 month)
(§6) The genes tested were: • Cannabinoid receptor 1 (CB1(CNR1)) • Cannabinoid receptor 2 (CB2 (CNR2)) • Fatty acid amide hydrolase (FAAH) • Monoacylglycerol lipase (MGLL, i.e., MAGL) • Peroxisome proliferator-activated receptor gamma (PPARG) • Nuclear factor kappa-light-chain-enhancer of activated B cells (NFκβ) • Interleukin 1 Alpha (IL1alpha) • Cyclooxygenase 1 (PTGS1, i.e., COX1) • Transient receptor potential cation channel subfamily A member 1 (TRPA1) • Transient receptor potential cation channel subfamily V member 1 (TRPV1) • Transient receptor potential cation channel subfamily M member 8 (TRPM8) • Hemoglobin Subunit Beta (HBB) REFERENCE GENE • Ribosomal Protein L13a (RPL13A) REFERENCE GENE […]

[2] = test system: CNR1; test: Gene expression custom microarray, human skin fibroblasts (Example 1): CNR1
From the text: as §1, §2, §3, §4, §5, §6

[3] = test system: NFKB1; test: Gene expression custom microarray, human skin fibroblasts (Example 1): NFKB1; conditions: human skin fibroblasts, 10 uM, 24 hr
From the text: as §1, §2
as §3, with “ETOH.” for “ETOH. The concentration of each test compound is found in Tables 1 & 2.”
as §4, §5
The genes tested were: • Cannabinoid receptor 1 (CB1(CNR1)) • Cannabinoid receptor 2 (CB2 (CNR2)) • Fatty acid amide hydrolase (FAAH) • Monoacylglycerol lipase (MGLL, i.e., MAGL) • Peroxisome proliferator-activated receptor gamma (PPARG) • Nuclear factor kappa-light-chain-enhancer of activated B cells (NFκβ) • Interleukin 1 Alpha (IL1alpha) • Cyclooxygenase 1 (PTGS1, i.e., COX1) • Transient receptor potential cation channel subfamily A member 1 (TRPA1) • Transient receptor potential cation channel subfamily V member 1 (TRPV1) • Transient receptor potential cation channel subfamily M member 8 (TRPM8) • Hemoglobin Subunit Beta (HBB) REFERENCE GENE • Ribosomal Protein L13a (RPL13A) REFERENCE GENE

[4] = test system: PTGS1; test: Gene expression custom microarray, human skin fibroblasts (Example 1): PTGS1; conditions: human skin fibroblasts, 10 uM, 24 hr
From the text: as §1, §2, §3, §4, §5, §6

[5] = test system: MAGL; test: Gene expression custom microarray, human skin fibroblasts (Example 1): MAGL
From the text: as §1, §2, §3, §4, §5, §6

[6] = human skin fibroblasts, 10 uM, 24 hr

Compound	fold induction at 10 µM ([1]; Homo sapiens, Skin fibroblast, 24 h, read-out: FAAH↓ gene expression, fold increase or decrease vs untreated cells)	fold induction at 10 µM ([2]; Homo sapiens, Skin fibroblast, 24 h, read-out: CNR1↑ gene expression, fold increase or decrease vs untreated cells)	fold induction at 10 µM ([3]; Skin fibroblast, read-out: NFKB1↓ gene expression, fold increase or decrease vs untreated cells)	fold induction at 10 µM ([4]; Skin fibroblast, read-out: PTGS1↓ gene expression, fold increase or decrease vs untreated cells)	fold induction at 10 µM ([5]; Homo sapiens, Skin fibroblast, 24 h, read-out: MAGL↓ gene expression, fold increase or decrease vs untreated cells)	FAAH↓ gene expression, fold increase or decrease vs untreated cells [1, 6] [fold]	CNR1↑ gene expression, fold increase or decrease vs untreated cells [2, 6] [fold]	NFKB1↓ gene expression, fold increase or decrease vs untreated cells [3] [fold]	PTGS1↓ gene expression, fold increase or decrease vs untreated cells [4] [fold]	MAGL↓ gene expression, fold increase or decrease vs untreated cells [5, 6] [fold]
C=C(C)[C@@H]1CCC(C)=C[C@H]1c1c(O)cc(CCCCC)cc1O [CBD, cannabidiol, reference compound]	2.2	1.5	2.3	4.2	1.8	–	–	–	–	–
CCCCCCCCCCCCCCCC(=O)NCCO [N-palmitoylethanolamide]	–	–	–	–	–	−1.1	5.9	1.5	1.1	2.8
